Test results as given in patent publication US12685726B2, “Sulfoximines as inhibitors of NaV1.8” (Gruenenthal GmbH, priority 2022, dated 2026).
pIC50: −log10 of the molar value.

Target: T1, human NaV 1.8 (Homo sapiens, UniProt Q9Y5Y9)
T1 construct: expressed in transfected cells; host or cells: HEK (recombinant cell line)
Test: Automated whole-cell patch clamp (Qube384) voltage-clamp recordings of sodium currents in HEK-NaV1.8 cell line
Format: cell-based
Conditions: read-out: Potency category (human NaV 1.8 IC50)
Method in brief: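 HEK cells expressing NaV1.8 with b3, whole-cell automated voltage clamp at room temperature or 19° C.; CsF-based internal, pH 7.4 external. State-dependent (−120 mV, V1/2 4 s, −10 mV test pulses) and 10/20 Hz 40-pulse protocols; ~12 min compound, vehicle-corrected, IC50 by 4-parameter logistic fit.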

T1 sequence (Q9Y5Y9 whole entry): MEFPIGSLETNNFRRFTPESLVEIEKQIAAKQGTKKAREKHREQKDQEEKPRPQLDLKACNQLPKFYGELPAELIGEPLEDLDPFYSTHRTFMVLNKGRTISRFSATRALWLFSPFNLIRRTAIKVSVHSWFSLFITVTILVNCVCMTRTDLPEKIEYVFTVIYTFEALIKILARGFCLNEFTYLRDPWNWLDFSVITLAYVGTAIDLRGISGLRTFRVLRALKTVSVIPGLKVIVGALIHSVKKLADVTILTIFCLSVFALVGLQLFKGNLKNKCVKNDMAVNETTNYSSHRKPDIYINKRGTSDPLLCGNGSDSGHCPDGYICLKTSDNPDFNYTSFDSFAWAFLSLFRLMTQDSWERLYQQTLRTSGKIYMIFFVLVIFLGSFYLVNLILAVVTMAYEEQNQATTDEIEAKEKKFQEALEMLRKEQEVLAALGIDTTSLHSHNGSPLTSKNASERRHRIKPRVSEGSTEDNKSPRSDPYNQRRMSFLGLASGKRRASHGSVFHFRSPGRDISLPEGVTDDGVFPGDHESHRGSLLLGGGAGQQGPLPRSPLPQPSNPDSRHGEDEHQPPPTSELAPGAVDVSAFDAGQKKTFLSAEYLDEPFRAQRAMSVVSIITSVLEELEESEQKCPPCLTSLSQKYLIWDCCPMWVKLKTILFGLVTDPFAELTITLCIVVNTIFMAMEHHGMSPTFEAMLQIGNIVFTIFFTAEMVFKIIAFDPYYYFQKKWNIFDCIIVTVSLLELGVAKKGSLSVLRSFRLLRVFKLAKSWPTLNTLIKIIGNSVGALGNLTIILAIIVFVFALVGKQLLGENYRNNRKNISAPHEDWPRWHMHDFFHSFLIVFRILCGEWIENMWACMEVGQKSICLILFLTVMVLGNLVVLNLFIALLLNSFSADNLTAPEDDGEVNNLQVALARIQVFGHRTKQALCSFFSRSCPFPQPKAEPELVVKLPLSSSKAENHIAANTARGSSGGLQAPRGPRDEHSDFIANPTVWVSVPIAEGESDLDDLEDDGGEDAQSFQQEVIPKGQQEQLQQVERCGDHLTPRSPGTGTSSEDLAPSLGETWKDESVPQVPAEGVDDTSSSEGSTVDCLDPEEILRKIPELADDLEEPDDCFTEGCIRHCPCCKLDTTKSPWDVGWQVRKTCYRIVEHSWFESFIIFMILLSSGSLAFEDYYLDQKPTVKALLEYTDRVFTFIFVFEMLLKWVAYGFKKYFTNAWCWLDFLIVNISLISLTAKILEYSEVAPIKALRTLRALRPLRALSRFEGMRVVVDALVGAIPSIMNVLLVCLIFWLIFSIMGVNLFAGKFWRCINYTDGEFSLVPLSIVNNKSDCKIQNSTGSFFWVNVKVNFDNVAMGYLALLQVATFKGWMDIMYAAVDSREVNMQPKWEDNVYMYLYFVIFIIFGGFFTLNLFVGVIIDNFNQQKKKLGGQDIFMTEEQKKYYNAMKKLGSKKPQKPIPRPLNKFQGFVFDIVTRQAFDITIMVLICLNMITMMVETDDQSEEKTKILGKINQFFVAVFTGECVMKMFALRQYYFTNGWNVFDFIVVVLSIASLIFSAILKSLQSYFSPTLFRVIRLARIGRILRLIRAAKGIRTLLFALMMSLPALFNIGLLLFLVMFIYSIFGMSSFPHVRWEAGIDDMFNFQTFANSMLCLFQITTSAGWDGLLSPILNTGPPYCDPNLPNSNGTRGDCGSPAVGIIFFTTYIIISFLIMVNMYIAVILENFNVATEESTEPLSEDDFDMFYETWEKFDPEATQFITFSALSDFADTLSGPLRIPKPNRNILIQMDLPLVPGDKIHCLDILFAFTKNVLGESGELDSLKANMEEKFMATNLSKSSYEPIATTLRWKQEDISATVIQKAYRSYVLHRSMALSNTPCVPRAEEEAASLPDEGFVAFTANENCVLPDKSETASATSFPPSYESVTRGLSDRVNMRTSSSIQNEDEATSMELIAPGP

Row | SMILES | pIC50
1 | CC1(Cn2nc(C3CC3F)c(C(F)(F)F)c2C(=O)Nc2ccnc(S(C)(=N)=O)c2)CC(F)(F)C1 (racemic) [Example 62a, 1-((3,3-Difluoro-1-methylcyclobutyl)methyl)-3-(2-fluorocyclopropyl)-N-(2-(S-methylsulfonimidoyl)pyridin-4-yl)-4-(trifluoromethyl)-1H-pyrazole-5-carboxamide] | ≥ 7.00
2 | CCS(=N)(=O)c1cc(NC(=O)c2c(C(F)(F)F)c(C3CC3)nn2CC2(C)CC(F)(F)C2)ccn1 (single isomer, unassigned) [Example 48a, 3-cyclopropyl-1-((3,3-difluoro-1-methylcyclobutyl)methyl)-N-(2-(ethylsulfonimidoyl)pyridin-4-yl)-4-(trifluoromethyl)-1H-pyrazole-5-carboxamide] | ≥ 7.00
3 | C[C@@]1(Cn2nc(C3CC3)c(C(F)(F)F)c2C(=O)Nc2ccnc([S@](C)(=N)=O)c2)CC(F)(F)C12CC2 (single isomer, unassigned) [Example 92c, 3-cyclopropyl-1-((6,6-difluoro-4-methylspiro[2.3]hexan-4-yl)methyl)-N-(2-(S-methylsulfonimidoyl)pyridin-4-yl)-4-(trifluoromethyl)-1H-pyrazole-5-carboxamide] | ≥ 7.00
4 | COC1(c2nn(CC3(C)CC(F)(F)C3)c(C(=O)Nc3ccnc(S(C)(=N)=O)c3)c2C(F)(F)F)CC1 (single isomer, unassigned) [Example 71b, 1-((3,3-difluoro-1-methylcyclobutyl)methyl)-3-(1-methoxycyclopropyl)-N-(2-(S-methylsulfonimidoyl)pyridin-4-yl)-4-(trifluoromethyl)-1H-pyrazole-5-carboxamide] | ≥ 7.00
5 | C[C@H]1C[C@@H]1c1nn(CC2(C)CC(F)(F)C2)c(C(=O)Nc2ccnc([S@](C)(=N)=O)c2)c1C(F)(F)F (single isomer, unassigned) [Example 65a, 1-((3,3-Difluoro-1-methylcyclobutyl)methyl)-3-((trans)-2-methylcyclopropyl)-N-(2-(S-methylsulfonimidoyl)pyridin-4-yl)-4-(trifluoromethyl)-1H-pyrazole-5-carboxamide] | ≥ 7.00
6 | CC1(Cn2nc(C3(F)CC3)c(C(F)(F)F)c2C(=O)Nc2cccc(S(=N)(=O)C(F)(F)F)c2)CC(F)(F)C1 (stereo not drawn) [Example 131, 1-((3,3-Difluoro-1-methylcyclobutyl)methyl)-3-(1-fluorocyclopropyl)-4-(trifluoromethyl)-N-(3-(S-(trifluoromethyl)sulfonimidoyl)phenyl)-1H-pyrazole-5-carboxamide] | ≥ 7.00
7 | C[S@@](=N)(=O)c1cc(NC(=O)c2c(C(F)(F)F)c(C3CC3)nn2C[C@@H]2C(F)(F)C23CC3)ccn1 (single isomer, unassigned) [Example 79c, 3-cyclopropyl-1-((2,2-difluorospiro[2.2]pentan-1-yl)methyl)-N-(2-(S-methylsulfonimidoyl)pyridin-4-yl)-4-(trifluoromethyl)-1H-pyrazole-5-carboxamide] | ≥ 7.00
8 | CS(=N)(=O)c1cc(NC(=O)c2c(C(F)(F)F)c(C3CC3)nn2CC2(C(F)(F)F)CCCC2)ccn1 (single isomer, unassigned) [Example 98a, 3-cyclopropyl-N-(2-(S-methylsulfonimidoyl)pyridin-4-yl)-4-(trifluoromethyl)-1-((1-(trifluoromethyl)cyclopentyl)methyl)-1H-pyrazole-5-carboxamide] | ≥ 7.00
9 | CC(F)(F)c1nn(CC2CC(F)(F)C2)c(C(=O)Nc2ccnc(S(C)(=N)=O)c2)c1C(F)(F)F (centres unmarked) [Example 3, 1-((3,3-Difluorocyclobutyl)methyl)-3-(1,1-difluoroethyl)-N-(2-(S-methylsulfonimidoyl)pyridin-4-yl)-4-(trifluoromethyl)-1H-pyrazole-5-carboxamide] | ≥ 7.00
10 | Cc1c(C(C)(F)F)nn(CC23CC(C(F)(F)F)(C2)C3)c1C(=O)Nc1ccnc(S(C)(=N)=O)c1 (single isomer, unassigned) [Example 15b, 3-(1,1-difluoroethyl)-4-methyl-N-(2-(S-methylsulfonimidoyl)pyridin-4-yl)-1-((3-(trifluoromethyl)bicyclo[1.1.1]pentan-1-yl)methyl)-1H-pyrazole-5-carboxamide] | ≥ 7.00
11 | CC1(Cn2nc(C3(F)CC3)c(C(F)F)c2C(=O)Nc2cccc(S(C)(=N)=O)c2)CC(F)(F)C1 (single isomer, unassigned) [Example 135b, 1-((3,3-Difluoro-1-methylcyclobutyl)methyl)-4-(difluoromethyl)-3-(1-fluorocyclopropyl)-N-(3-(S-methylsulfonimidoyl)phenyl)-1H-pyrazole-5-carboxamide] | ≥ 7.00
12 | Cc1c(C(C)(F)F)nn(CC2(C)CC(F)(F)C2)c1C(=O)Nc1ccnc(S(C)(=N)=O)c1 (single isomer, unassigned) [Example 5b, 1-((3,3-difluoro-1-methylcyclobutyl)methyl)-3-(1,1-difluoroethyl)-4-methyl-N-(2-(S-methylsulfonimidoyl)pyridin-4-yl)-1H-pyrazole-5-carboxamide] | ≥ 7.00
13 | C[S@@](=N)(=O)c1cc(NC(=O)c2c(C(F)(F)F)c(C3CC3)nn2C[C@]2(C)C[C@H](C(F)(F)F)C2)ccn1 (single isomer, unassigned) [Example 86a, 3-cyclopropyl-1-(((trans)-1-methyl-3-(trifluoromethyl)cyclobutyl)methyl)-N-(2-(S-methylsulfonimidoyl)pyridin-4-yl)-4-(trifluoromethyl)-1H-pyrazole-5-carboxamide] | ≥ 7.00
14 | CN=S(C)(=O)c1cc(NC(=O)c2c(C)c(C(C)(F)F)nn2CC2(C)CC(F)(F)C2)ccn1 (single isomer, unassigned) [Example 34a, 1-((3,3-Difluoro-1-methylcyclobutyl)methyl)-3-(1,1-difluoroethyl)-N-(2-(N,S-dimethylsulfonimidoyl)pyridin-4-yl)-4-methyl-1H-pyrazole-5-carboxamide] | ≥ 7.00
15 | CC1(Cn2nc(C3(F)CC3)c(C(F)(F)F)c2C(=O)Nc2cccc(S(C)(=N)=O)c2)CC(F)(F)C1 (single isomer, unassigned) [Example 109b, 1-((3,3-Difluoro-1-methylcyclobutyl)methyl)-3-(1-fluorocyclopropyl)-N-(3-(S-methylsulfonimidoyl)phenyl)-4-(trifluoromethyl)-1H-pyrazole-5-carboxamide] | ≥ 7.00
16 | CC1(Cn2nc(C3CC(F)(F)C3)c(C(F)(F)F)c2C(=O)Nc2ccnc(S(C)(=N)=O)c2)CC(F)(F)C1 (single isomer, unassigned) [Example 57a, 1-((3,3-Difluoro-1-methylcyclobutyl)methyl)-3-(3,3-difluorocyclobutyl)-N-(2-(S-methylsulfonimidoyl)pyridin-4-yl)-4-(trifluoromethyl)-1H-pyrazole-5-carboxamide] | ≥ 7.00
17 | CC1(Cn2nc(C3(F)CC3)c(C(F)(F)F)c2C(=O)Nc2ccnc(S(C)(=N)=O)c2)CC(F)(F)C1 (single isomer, unassigned) [Example 70a, 1-((3,3-Difluoro-1-methylcyclobutyl)methyl)-3-(1-fluorocyclopropyl)-N-(2-(S-methylsulfonimidoyl)pyridin-4-yl)-4-(trifluoromethyl)-1H-pyrazole-5-carboxamide] | ≥ 7.00
18 | CS(=N)(=O)c1cc(NC(=O)c2c(C(F)(F)F)c(C3CC3)nn2CC23CC(F)(C2)C3)ccn1 (single isomer, unassigned) [Example 25a, 3-cyclopropyl-1-((3-fluorobicyclo[1.1.1]pentan-1-yl)methyl)-N-(2-(S-methylsulfonimidoyl)pyridin-4-yl)-4-(trifluoromethyl)-1H-pyrazole-5-carboxamide] | ≥ 7.00
19 | CC1(Cn2nc(C3CCCC3)c(C(F)(F)F)c2C(=O)Nc2ccnc(S(C)(=N)=O)c2)CC(F)(F)C1 (single isomer, unassigned) [Example 59b, 3-Cyclopentyl-1-((3,3-difluoro-1-methylcyclobutyl)methyl)-N-(2-(S-methylsulfonimidoyl)pyridin-4-yl)-4-(trifluoromethyl)-1H-pyrazole-5-carboxamide] | ≥ 7.00
20 | CS(=N)(=O)c1cc(NC(=O)c2c(C(F)(F)F)c(C3CC3)nn2CC2CC3(C2)CC(F)(F)C3)ccn1 (single isomer, unassigned) [Example 27a, 3-cyclopropyl-1-((6,6-difluorospiro[3.3]heptan-2-yl)methyl)-N-(2-(S-methylsulfonimidoyl)pyridin-4-yl)-4-(trifluoromethyl)-1H-pyrazole-5-carboxamide] | ≥ 7.00
21 | CC1(Cn2nc(C3CC4(CC4)C3)c(C(F)(F)F)c2C(=O)Nc2ccnc(S(C)(=N)=O)c2)CC(F)(F)C1 (single isomer, unassigned) [Example 61a, 1-((3,3-Difluoro-1-methylcyclobutyl)methyl)-N-(2-(S-methylsulfonimidoyl)pyridin-4-yl)-3-(spiro[2.3]hexan-5-yl)-4-(trifluoromethyl)-1H-pyrazole-5-carboxamide] | ≥ 7.00
22 | CS(=N)(=O)c1cc(NC(=O)c2c(C(F)(F)F)c(C3CC3)nn2CC2(C(F)(F)F)CCCC2)ccn1 (single isomer, unassigned) [Example 98b, 3-cyclopropyl-N-(2-(S-methylsulfonimidoyl)pyridin-4-yl)-4-(trifluoromethyl)-1-((1-(trifluoromethyl)cyclopentyl)methyl)-1H-pyrazole-5-carboxamide] | ≥ 7.00
23 | CC1(Cn2nc(C3(C(F)F)CC3)c(C(F)(F)F)c2C(=O)Nc2ccnc(S(C)(=N)=O)c2)CC(F)(F)C1 (single isomer, unassigned) [Example 145a, 1-((3,3-Difluoro-1-methylcyclobutyl)methyl)-3-(1-(difluoromethyl)cyclopropyl)-N-(2-(S-methylsulfonimidoyl)pyridin-4-yl)-4-(trifluoromethyl)-1H-pyrazole-5-carboxamide] | ≥ 7.00
